For series [1] the following is noted: cited from earlier work.
The nature of series [2]: Dose-escalation food intake trial in obese subjects with Universal Eating Monitor (Examples 2-5). It counts as in vivo, human.
A short description of series [3]: Double-blind crossover food intake study, intranasal lidocaine vs saline before a fried chicken meal. As to conditions: four subjects. It counts as in vivo, human. On the procedure:
Three males and one female between 23 and 60 years of age with BMI's less than 25 kg/m2 participated in a study of food intake. The subjects presented to the food intake laboratory at noon after an overnight fast except for water from 9 pm the prior night on two occasions a week apart. They had 10 mg (0.5 cc) of lidocaine or 0.5 cc normal saline administered in each nostril 20 minutes before presentation of a meal consisting of fried chicken pieces and water. They were allowed to eat and drink as much or as little as they wished over a 20-minute period, and there were more chicken pieces than they could reasonably be expected to eat at one sitting. The order of the lidocaine and saline was balanced and the study was performed in a double-blind fashion.
The four subjects consumed 15%, 11%, 27% and 33% less on the lidocaine week compared to the placebo week. […] Sibutramine, an obesity drug, gives an 8% weight loss at 6 months and causes a 12% decrease in food intake.

For series [4] the following is noted: 70 kg adult; cited from earlier work.
The conditions of series [5]: applied topically; cited from earlier work.

Several values for one entry are separate records, joined by “and”; a condition that tells them apart may be missing. Equal values may be shown once.

Consider `CC(C)CC(N(C)C)C1(c2ccc(Cl)cc2)CCC1` (stereo not shown) [Sibutramine], for which the weight loss in series [1] (at 6 months) is on record as 8%. For the same compound, the “decrease in food intake” value in series [1] (in vivo) is recorded as 12%.

Regarding `Cn1c(=O)c2c(ncn2C)n(C)c1=O` [caffeine], in series [2] (about 200 mg caffeine orally or nasally added to lidocaine, Example 4), the “effect on energy expenditure” value is given as “increasing energy expenditure”.

`CCN(CC)CC(=O)Nc1c(C)cccc1C` [lidocaine]: in series [3] (10 mg (0.5 cc) lidocaine in each nostril 20 minutes before meal, BMI less than 25 kg/m2), the “reduction in food consumed on lidocaine week compared to placebo week, individual subjects” value was 15% and 11% and 27% and 33%. Further, the “overall reduction in food intake” value in series [3] (10 mg lidocaine in each nostril 20 minutes before meal, p<0.02) is 21.5%+10.2%. Besides, the “maximum safe dosage for topical anesthetic” value in series [4] is reported as 500 mg. Moreover, the “food consumption with escalating doses” value in series [2] (2.5, 10 and 25 mg lidocaine per nostril vs saline, BMI 30-40, Example 2) was “reduction in food consumption”. Further, in series [5], the duration of anesthesia is 30 to 45 min and the “time to peak anesthesia” value is 2 to 5 min.

Regarding leptin, the anorexiant effect entry in series [2] (about 20 mg per day leptin added to lidocaine, Example 5) was “further anorexiant effect”.

The values are drawn from patent US20070020195A1, “Nasally administered appetite suppressants” (priority 2005, published 2007).
